Data from US7803793B2, “Heterocyclic derived metalloprotease inhibitors” (Janssen Pharmaceutica NV, priority 2006, dated 2010).
Like-named read-outs stand apart in the source and are kept apart here.

Tests used:
[1] = system: all MMPs tested; conditions: read-out: IC50's on all MMPs tested; cited from earlier work
[2] = target: T1, MMP-9 (Homo sapiens, UniProt P14780); test: MMP enzymatic assay (Trupoint peptide), MMP-9; assay type: biochemical
T1 construct: Human MMP-9 catalytic domain (aa 107-446)
T1 sequence (P14780 107-446): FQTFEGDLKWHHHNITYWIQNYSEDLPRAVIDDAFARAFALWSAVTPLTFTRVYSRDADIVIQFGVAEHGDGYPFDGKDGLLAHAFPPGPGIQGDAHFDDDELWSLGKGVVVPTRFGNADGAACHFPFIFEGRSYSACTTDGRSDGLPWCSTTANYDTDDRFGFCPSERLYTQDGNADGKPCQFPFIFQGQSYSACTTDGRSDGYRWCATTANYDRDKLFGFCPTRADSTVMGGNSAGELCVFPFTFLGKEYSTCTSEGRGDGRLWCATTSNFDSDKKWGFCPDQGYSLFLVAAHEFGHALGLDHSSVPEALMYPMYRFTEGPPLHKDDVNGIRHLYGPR

[3] = target: T2, MMP-2 (Homo sapiens, UniProt P08253); test: MMP enzymatic assay (Trupoint peptide), MMP-2; assay type: biochemical
T2 construct: Human MMP-2 full length (aa 1-660)
T2 sequence (P08253 30-660): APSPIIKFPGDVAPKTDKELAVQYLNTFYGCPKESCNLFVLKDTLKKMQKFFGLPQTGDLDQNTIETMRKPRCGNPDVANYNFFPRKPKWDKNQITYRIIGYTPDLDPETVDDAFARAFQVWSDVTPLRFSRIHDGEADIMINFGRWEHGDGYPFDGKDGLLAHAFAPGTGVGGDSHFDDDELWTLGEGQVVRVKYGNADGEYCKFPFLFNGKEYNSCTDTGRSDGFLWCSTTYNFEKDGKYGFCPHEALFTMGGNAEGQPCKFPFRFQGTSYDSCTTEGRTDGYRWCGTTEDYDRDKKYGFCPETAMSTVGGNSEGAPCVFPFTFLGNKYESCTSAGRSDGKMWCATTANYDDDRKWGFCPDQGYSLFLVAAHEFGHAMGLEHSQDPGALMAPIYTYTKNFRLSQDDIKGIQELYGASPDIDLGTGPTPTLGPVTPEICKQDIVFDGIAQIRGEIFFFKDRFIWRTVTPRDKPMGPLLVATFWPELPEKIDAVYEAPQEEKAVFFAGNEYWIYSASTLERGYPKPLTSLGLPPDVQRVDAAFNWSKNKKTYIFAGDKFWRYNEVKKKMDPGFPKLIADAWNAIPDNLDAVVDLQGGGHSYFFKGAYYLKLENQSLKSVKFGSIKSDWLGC

| Compound | IC50 [1] | IC50 [2] | IC50 [3] | IC50 ([3]; read-out: MMP-2 nM IC50) |
| --- | --- | --- | --- | --- |
| CNC(=O)[C@H](Cc1c[nH]c2ccccc12)NC(=O)[C@H](Cc1ccccc1)C1OCCN(O)C1=O (stereo partly shown) | 20100 to 104000 nM |  |  |  |
| O=C1C(S(=O)(=O)c2ccc(-c3ccccc3)cc2)CCCCN1O (stereo not shown) [Compound 83, 3-(Biphenyl-4-sulfonyl)-1-hydroxy-azepan-2-one] |  | > 1000 nM | > 1000 nM |  |
| N#Cc1ccc(-c2ccc(S(=O)(=O)C3CCCCN(O)C3=O)cc2)cc1 (stereo not shown) [Compound 84, 4′-(1-Hydroxy-2-oxo-azepane-3-sulfonyl)-biphenyl-4-carbonitrile] |  | > 1000 nM | > 1000 nM |  |
| Cc1ccc(-c2ccc(S(=O)(=O)C3CCCCN(O)C3=O)cc2)cc1 (stereo not shown) [Compound 86, 1-Hydroxy-3-(4′-methyl-biphenyl-4-sulfonyl)-azepan-2-one] |  | > 1000 nM | > 1000 nM |  |
| O=c1c(N(CCN2CCOCC2)S(=O)(=O)c2ccc(Oc3ccc(Cl)cc3)cc2)cccn1O [Compound 87, 4-(4-Chloro-phenoxy)-N-(1-hydroxy-2-oxo-1,2-dihydro-pyridin-3-yl)-N-(2-morpholin-4-yl-ethyl)-benzenesulfonamide] |  | 4.2 nM |  | 5 nM |
| Cc1ccc(-c2ccc(S(=O)(=O)N[C@@H]3CC=CCN(O)C3=O)s2)cc1 [Compound 90] |  | 8.6 nM | 4.2 nM |  |
| Cc1ccc(C#Cc2ccc(S(=O)(=O)N(CCN3CCOCC3)C3CC=CCN(O)C3=O)s2)cc1 (stereo not shown) [Compound 91] |  | 0.6 nM | 2.2 nM |  |
| O=C1C(NS(=O)(=O)c2ccc(Oc3ccc(Cl)cc3)cc2)CCCCN1O (stereo not shown) [Compound 92] |  | 5.9 nM | 3.7 nM |  |
| O=C1C(N(CCN2CCOCC2)S(=O)(=O)c2ccc(-c3ccc(Cl)cc3)s2)CC=CCN1O (stereo not shown) [Compound 93] |  | 17.2 nM | 16.4 nM |  |
| O=C1C(CS(=O)(=O)c2ccc(Oc3ccccc3)cc2)NCCCN1O (stereo not shown) [Compound 94] |  | 21.1 nM | 36.8 nM |  |
| O=C1C(S(=O)(=O)c2ccc(-c3ccc(F)cc3)cc2)CCCCN1O (stereo not shown) [Compound 95] |  | 1190 nM | 584 nM |  |
| COc1ccc(S(=O)(=O)Cc2cccn(O)c2=O)cc1 [Compound 96] |  | > 1000 nM | > 1000 nM |  |
| COc1ccc(Oc2ccc(S(=O)(=O)Cc3cccn(O)c3=O)cc2)cc1 [Compound 97] |  | 7.26 nM |  | 17.3 nM |
| O=c1c(N(CCN2CCSCC2)S(=O)(=O)c2ccc(Oc3ccc(Cl)cc3)cc2)cccn1O [Compound 98] |  | 4.9 nM |  | 6.1 nM |
| CN1CCN(CCN(c2cccn(O)c2=O)S(=O)(=O)c2ccc(Oc3ccc(Cl)cc3)cc2)CC1 [Compound 99] |  | 1.3 nM |  | 1.7 nM |
| N-(1-Hydroxy-2-oxo-1,2-dihydro-pyridin-3-yl)-N-methyl-4-p-tolyloxy-benzene-sulfonamide [Compound 26] |  | 3.4 nM |  | 6.1 nM |
